{"source": "patent US8183364B2", "about": "“Substituted porphyrins” (Duke University, priority 2004, dated 2012)", "key": {"[1]": {"assay": "Oxidative degradation in the presence of ascorbic acid under aerobic conditions", "assay_type": "physicochemical", "conditions": "pH 7.8 (0.05 M tris buffer)", "description": "Under these conditions porphyrins underwent oxidative degradation. As previously observed (Batinic-Haberle et al, J. Chem. Soc., Dalton Trans., pgs. 2689-2696 (2002)), those porphyrins that are of more positive E1/2 are stabilized in +2 oxidation state and are less prone to oxidative damage. Accordingly, 27% and 24% of MnTE-2-PyP^5+ and MnTMOE-2-PyP^5+ undergo degradation within 2 hours, but only 2% of MnTM,MOE-2-ImP^5+ and MnTDMOE-2-ImP^5+ and 3% of MnTDE-2-ImP^5+."}, "[2]": {"assay": "Kinetic salt effect on O2.^− dismutation by cytochrome c assay", "assay_type": "biochemical", "conditions": "for slope of log kcat vs μ^1/2/(1+μ^1/2): 0.05 M phosphate buffer, pH 7.8, 0-0.4 M NaCl", "description": "Kinetic salt effect. The dependence of the catalytic rate constant for the O2.^− dismutation upon ionic strength was determined by cytochrome c assay (McCord and Fridovich, J. Biol. Chem. 244:6049 (1969)) in 0.05 M phosphate buffer, pH 7.8 with NaCl ranging from 0 to 0.4 M. In doing this, the effect of ionic strength on the rate of the O2.^−/cytochrome c reaction was corrected for.\nKinetic salt effect. The effect of the ionic strength (μ) on the catalytic rate constant was assessed using eq which is based on Debye-Huckel relation (Hambright et al, J. Porphyrins Phthalocyanines 7:139-146 (2003)) for the effect of the ionic strength of the solution on the activity coefficient of an ion. log k=log kref+2AzAzBμ^1/2/(1+μ^1/2) The k is the rate constant at any given ionic strength, while kref is the rate constant at μ=0. The A is a collection of physical constants with a value of 0.509 and zA and zB are the charges of the reacting species. The equation predicts a linear plot of log k vs μ^1/2/(1+μ^1/2). Eq assumes a coefficient of 1.0 (βai) for μ^1/2 in the denominator, i.e., the distance of the closest approach, ai to be 3 A and β is a physical constant, […]. It is doubtful whether great significance can be attributed to the ai, thus to the product zAzB (Hambright et al, J. Porphyrins Phthalocyanines 7:139-146 (2003)), especially so in the light of the bulkiness, high charge and solvation shell of the metalloporphyrins. Accounting for the mono- and diprotonated phosphates as the major species at pH 7.8 (pKa=7.2), and the concentration of the NaCl, the ionic strength was calculated using equation μ=½ Σ mizi^2 where mi is the molality and zi the charge of the given ion.\nThe slopes of the plots are −6.48 (MnTE-2-PyP^5+), −7.02 (MnTMOE-2-PyP^5+), −7.38 (MnTDMOE-2-ImP^5+), and −4.15 (MnTnBu-2-PyP^5+). As expected (Hambright et al, J. Porphyrins Phthalocyanines 7:139-146 (2003)), when the reactants are ions of opposite charges, the higher the ionic strength of the solution the lower the rate constants, i.e. the slopes are negative. The slopes of the plots indicate clearly the impact of the local dielectric constant on the kcat. The kcat of the most lipophilic compound, MnTnBu-2-PyP^5+ is 40% less sensitive to the changes in ionic strength of the solution than is the kcat of its methoxyethyl analogue, MnTMOE-2-PyP^5+."}, "[3]": {"system": "SOD-deficient JI132 E. coli", "assay": "Aerobic growth of SOD-deficient E. coli", "assay_type": "cell-based", "description": "(§1) Aerobic growth of E. coli. Bacterial strains of E. coli used were wild type AB1157 (F-thr-1 leu-1 proA2 his-4 argE3 thr-1 lacY1 galK2 rpsL supE44 ara-14 xyl-15 mtl-1 tsx-33) and SOD-deficient JI132 (same as AB1157 plus (sodA::mudPR13)25 (sodB-kan)1-Δ2. Culture media were prepared as follows. M9 medium: 6 g/L Na2HPO4, 3 g/L KH2PO4, 0.5 g/L NaCl, 1 g/L NH4Cl, 2 mM MgSO4, 0.1 mM CaCl2, adjusted to pH 7.4 with NaOH, and supplemented with 0.2% glucose, 3 mg/L each of D-panthotenic acid and thiamine. M9CA medium contained M9 medium plus 0.2% casamino acids. 5-amino acid (5AA) minimal medium contained M9 medium plus 0.5 mM each of threonine, leucine, histidine, proline and arginine (Faulkner et al, J. Biocl. Chem. 269:23471 (1994)).\n(§2) AB 1157 and 31132 were precultured overnight aerobically in M9CA medium at 37° C. and were then diluted to 3×10^7 cells/mL into 5 mL M9CA medium. JI132 was precultured in the presence of 20 μg/mL chloramphenicol and 500 μg/mL kanamycin. When the cells are transferred from M9CA medium to 5AA minimal medium cultures were first centrifuged and washed twice with the 5AA medium before final dilution in it. The centrifugation was conducted at room temperature to avoid temperature shocks. Cultures without and with Mn porphyrins (0.1 to 30 μM) were grown aerobically in 5 mL volume in test tubes in a thermostated orbital shaker (45° angle, 200 rpm) at 37° C.). Rates of growth were followed turbidimetrically at 700 nm to minimize interference from the absorbance of test compounds."}, "[4]": {"conditions": "Mn(III)/Mn(II); 0.1 M NaCl, 0.05 M phosphate buffer, pH 7.8; data from Batinic-Haberle et al 2002; cited from earlier work"}, "[5]": {"conditions": "pH 7.8, (22 ± 1) °C; data from Batinic-Haberle et al 2002 (MnTE-2-PyP: Inorg. Chem. 40:726 (2001)); cited from earlier work"}, "[6]": {"conditions": "data from Batinic-Haberle et al 2002, cited from earlier work; for Rf (compound path/solvent path), metal-free porphyrin (in parenthesis): metal-free ligand of the named Mn porphyrin; for Rf (compound path/solvent path), Mn complex: silica gel TLC, KNO3-saturated H2O/H2O/acetonitrile = 1/1/8"}, "[7]": {"assay": "Electrochemistry: cyclic voltammetry of the Mn(III)/Mn(II) redox couple", "assay_type": "physicochemical", "conditions": "difference vs MnTE-2-PyP^5+ (+228 mV vs NHE)", "description": "Electrochemistry. Measurements were performed on a CH Instruments Model 600 Voltammetric Analyzer (Spasojevic and Batinic-Haberle, Inorg. Chim. Acta. 317:230-242 (2001), Batinic-Haberle et al, J. Biol. Chem. 273:24521-24528 (1998), Batinic-Haberle et al, Inorg. Chem. 38:4011-4022 (1999)). A three-electrode system in a small volume cell (0.5 mL to 3 mL), with a 3 mm-diameter glassy carbon button working electrode (Bioanalytical Systems), plus the Ag/AgCl reference and Pt auxiliary electrodes was used. Argon-purged solutions contained 0.05 M phosphate buffer, pH 7.8, 0.1 M NaCl, and 0.5 mM metalloporphyrin. The scan rates were 0.01-0.5 V/s, typically 0.1 V/s. The potentials were standardized against the potassium ferrocyanide/ferricyanide (Kolthof and Tomsicek, J. Phys. Chem. 39:945 (1935)) and/or against MnTE-2-PyP^5+ (Spasojevic and Batinic-Haberle, Inorg. Chim. Acta. 317:230-242 (2001), Batinic-Haberle et al, J. Biol. Chem. 273:24521-24528 (1998), Batinic-Haberle et al, Inorg. Chem. 38:4011-4022 (1999)).\nElectrochemistry. All cyclic voltammograms, ascribed to the Mn(III)/Mn(II) redox couple, are reversible. The E1/2 of di-ortho ethylimidazolylporphyrin, MnTDE-2-ImP^5+ is 118 mV more positive than of ortho ethylpyridylporphyrin, MnTE-2-PyP^5+ (+228 mV vs NHE), as a consequence of charge delocalization. A similar difference of 114 mV was seen between their methoxyethyl analogues. Mn porphyrins bearing N-pyridyl substituents of the same length, MnTnBu-PyP^5+ and MnTMOE-2-PyP^5+, have nearly identical E1/2 of +254 and +251 mV vs NHE, which is 26 and 23 mV higher than that of MnTE-PyP^5+."}, "wild type AB1157 E. coli": {"system": "wild type AB1157 E. coli", "assay": "Aerobic growth of wild type E. coli (toxicity)", "assay_type": "cell-based", "conditions": "for toxicity to wild type E. coli / concentration at which toxicity on the parental (wild type) strain is exerted / becomes observable: M9CA medium; for toxicity to wild type E. coli: 30 μM (up to 30 μM); for concentration at which toxicity on the parental (wild type) strain is exerted / becomes observable: range 0.1 to 30 μM; for growth of wild type E. coli: 5AA minimal medium", "description": "as §1, §2"}, "[8]": {"conditions": "previously observed (Batinic-Haberle et al 2002), compared with imidazolyl porphyrins; cited from earlier work"}}, "note": "“Also recorded” adds a separate entry of the source. Marks after values point to notes of the source that are not given here."}
{"compound": "CC[n+]1ccccc1-c1c2nc(c(-c3cccc[n+]3CC)c3ccc([n-]3)c(-c3cccc[n+]3CC)c3nc(c(-c4cccc[n+]4CC)c4ccc1[n-]4)C=C3)C=C2.[Mn+3]", "note": "[MnTE-2-PyP^5+]", "values": [{"measurement": "degradation within 2 hours", "setting": "[1]", "result": 27, "unit": "%"}, {"measurement": "slope of log kcat vs μ^1/2/(1+μ^1/2)", "setting": "[2]", "result": "−6.48"}, {"measurement": "aerobic growth of SOD-deficient E. coli", "setting": "[3]; 5AA minimal medium, 25 μM", "result": "most effective"}, {"measurement": "protection of SOD-deficient E. coli", "setting": "[3]; M9CA medium, 1 μM", "result": "low protection"}, {"measurement": "protection of SOD-deficient E. coli", "setting": "[3]; M9CA medium, 30 μM", "result": "either much higher or near full protection"}, {"measurement": "facilitation of aerobic growth of SOD-deficient E. coli, dependence on concentration", "setting": "[3]; M9CA medium, 1-30 μM", "result": "concentration-dependent manner"}, {"measurement": "Metal-centered redox potential E1/2", "setting": "[4]", "result": "+228 mV vs NHE"}, {"measurement": "log kcat for O2^− dismutation", "setting": "[5]", "result": "7.73^e"}, {"measurement": "Rf (compound path/solvent path), metal-free porphyrin (in parenthesis)", "setting": "[6]", "result": 0.21}, {"measurement": "Rf (compound path/solvent path), Mn complex", "setting": "[6]", "result": 0.13}]}
{"compound": "CCCC[n+]1ccccc1-c1c2nc(c(-c3cccc[n+]3CCCC)c3ccc([n-]3)c(-c3cccc[n+]3CCCC)c3nc(c(-c4cccc[n+]4CCCC)c4ccc1[n-]4)C=C3)C=C2.[Mn+3]", "note": "[MnTnBu-2-PyP^5+]", "values": [{"measurement": "E1/2 more positive / higher than that of MnTE-2-PyP^5+", "setting": "[7]", "result": 26, "unit": "mV"}, {"measurement": "slope of log kcat vs μ^1/2/(1+μ^1/2)", "setting": "[2]", "result": "−4.15"}, {"measurement": "kcat less sensitive to changes in ionic strength than MnTMOE-2-PyP^5+", "setting": "[2]; vs MnTMOE-2-PyP^5+", "result": 40, "unit": "%"}, {"measurement": "aerobic growth of SOD-deficient E. coli", "setting": "[3]; 5AA minimal medium, 3 μM", "result": "nearly as effective"}, {"measurement": "aerobic growth of SOD-deficient E. coli", "setting": "[3]; M9CA medium, 1 and 3 μM", "result": "less effective"}, {"measurement": "aerobic growth of SOD-deficient E. coli", "setting": "[3]; M9CA medium, 10 and 30 μM", "result": "most effective"}, {"measurement": "toxicity to wild type E. coli", "setting": "wild type AB1157 E. coli", "result": "only marginal toxicity"}, {"measurement": "concentration at which toxicity on the parental (wild type) strain is exerted / becomes observable", "setting": "wild type AB1157 E. coli", "result": 30, "unit": "µM"}, {"measurement": "Metal-centered redox potential E1/2", "setting": "[4]", "result": "+254 mV vs NHE"}, {"measurement": "log kcat for O2^− dismutation", "setting": "[5]", "result": 7.25}, {"measurement": "Rf (compound path/solvent path), metal-free porphyrin (in parenthesis)", "setting": "[6]", "result": 0.46}, {"measurement": "Rf (compound path/solvent path), Mn complex", "setting": "[6]", "result": 0.33}]}
{"compound": "CCCCCC[n+]1ccccc1-c1c2nc(c(-c3cccc[n+]3CCCCCC)c3ccc([n-]3)c(-c3cccc[n+]3CCCCCC)c3nc(c(-c4cccc[n+]4CCCCCC)c4ccc1[n-]4)C=C3)C=C2.[Mn+3]", "note": "[MnTnHex-2-PyP^5+]", "values": [{"measurement": "aerobic growth of SOD-deficient E. coli", "setting": "[3]; 5AA minimal medium, 3 μM", "result": "most effective"}, {"measurement": "aerobic growth of SOD-deficient E. coli", "setting": "[3]; 5AA minimal medium, 25 μM", "result": "failed to do so"}, {"measurement": "protection of SOD-deficient E. coli at 0.3 μM compared with 10 μM methyl, ethyl (and MnTDMOE-2-ImP) porphyrins", "setting": "[3]; M9CA medium, 0.3 μM, listed as n-hexyl", "result": "equally protective; also recorded: the same level of protection"}, {"measurement": "aerobic growth of SOD-deficient E. coli", "setting": "[3]; M9CA medium, 1 and 3 μM", "result": "most effective"}, {"measurement": "aerobic growth of SOD-deficient E. coli", "setting": "[3]; M9CA medium, 10 and 30 μM", "result": "progressively less effective"}, {"measurement": "toxicity to E. coli at 100-fold lower concentration", "setting": "wild type AB1157 E. coli; 0.3 μM", "result": "mostly eliminated"}, {"measurement": "growth of wild type E. coli", "setting": "wild type AB1157 E. coli; 3 μM", "result": "slowed the growth"}, {"measurement": "growth of wild type E. coli", "setting": "wild type AB1157 E. coli; up to 25 μM", "result": "toxic"}, {"measurement": "toxicity to wild type E. coli", "setting": "wild type AB1157 E. coli; listed as n-hexyl", "result": "prevented wild type E. coli to grow; also recorded: prevent wild type E. coli from growing"}, {"measurement": "concentration at which toxicity on the parental (wild type) strain is exerted / becomes observable", "setting": "wild type AB1157 E. coli", "result": 3, "unit": "µM"}, {"measurement": "Metal-centered redox potential E1/2", "setting": "[4]", "result": "+314 mV vs NHE"}, {"measurement": "log kcat for O2^− dismutation", "setting": "[5]", "result": 7.48}, {"measurement": "Rf (compound path/solvent path), metal-free porphyrin (in parenthesis)", "setting": "[6]", "result": 0.63}, {"measurement": "Rf (compound path/solvent path), Mn complex", "setting": "[6]", "result": 0.57}, {"measurement": "stability towards oxidative degradation", "setting": "[8]", "result": "same level of stability"}]}
